The text below walks through data of patent US10961253B2, “Positive allosteric modulators of the muscarinic acetylcholine receptor M4” (Vanderbilt University, priority 2016, dated 2021).

As a reminder, the EC50 is the concentration at which the effect is half-maximal. For orientation: Emax means the size of the effect at its maximum, as opposed to the concentration needed.

One series deals with T1, Human M4 (Homo sapiens, UniProt P08173).
T1 sequence (P08173 1-479): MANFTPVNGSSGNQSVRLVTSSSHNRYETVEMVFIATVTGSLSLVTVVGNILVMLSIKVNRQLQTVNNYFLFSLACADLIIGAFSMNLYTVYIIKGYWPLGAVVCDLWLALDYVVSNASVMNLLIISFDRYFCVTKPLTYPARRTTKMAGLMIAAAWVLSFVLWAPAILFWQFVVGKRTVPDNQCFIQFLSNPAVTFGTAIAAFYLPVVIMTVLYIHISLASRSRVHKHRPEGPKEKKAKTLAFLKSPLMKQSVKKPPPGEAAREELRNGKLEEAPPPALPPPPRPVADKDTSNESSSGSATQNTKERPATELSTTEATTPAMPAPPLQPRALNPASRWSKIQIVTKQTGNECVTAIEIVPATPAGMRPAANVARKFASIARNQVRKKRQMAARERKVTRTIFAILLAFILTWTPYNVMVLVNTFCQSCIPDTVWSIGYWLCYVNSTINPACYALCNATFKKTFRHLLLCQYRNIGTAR
As to the kind of experiment: mAChR M4 cell-based functional assay (calcium flux, potentiation of EC20 acetylcholine response). The note with it: for Emax: CHO-K1. Set-up: Emax: dose or concentration left out as unconfirmed. For orientation: A change in cytosolic calcium serves as a functional read-out for many receptors and channels.

The conditions of series [1]: Alzheimer's disease patients; delusions, suspiciousness, vocal outbursts, hallucinations; cited from earlier work.
For series [2] the following is noted: similar profiles to known antipsychotic drugs, without causing catalepsy; cited from earlier work.
The conditions of series [3]: human, in vivo; cited from earlier work.

The structures appear in SMILES notation. A value given as a limit tells only on which side of the number the result lay.

On to `Cc1cc(C)c2c(n1)sc1c(C3CCN(C(=O)C4CCC4)CC3)ncnc12` [Compound 14, cyclobutyl(4-(7,9-dimethylpyrido[3′,2′:4,5]thieno[3,2-d]pyrimidin-4-yl)piperidin-1-yl)methanone], for which, on Human M4, the EC50 came to 520 nM and the Emax is 72.3%.
As for `Cc1nnc2sc3c(C4CCNCC4)ncnc3c2c1C` [Compound 19, 3,4-dimethyl-8-(piperidin-4-yl)pyrimido[4′,5′:4,5]thieno[2,3-c]pyridazine], at Human M4, the concentration for a half-maximal effect (EC50) is 4300 nM and the Emax was determined as 33.8%.
The matching figures for `Cc1nnc2sc3c(C4CCCN(C=O)C4)ncnc3c2c1C` (stereo not shown) [Compound 23, 3-(3,4-dimethylpyrimido[4′,5′:4,5]thieno[2,3-c]pyridazin-8-yl)piperidine-1-carbaldehyde]: 510 nM and 67%.
As for `CCCCc1ncnc2c1sc1nnc(C)c(C)c12` [Compound 29, 8-butyl-3,4-dimethylpyrimido[4′,5′:4,5]thieno[2,3-c]pyridazine], on Human M4, the concentration giving a half-maximal response (EC50) came out at 540 nM and the Emax came to 93.4%.
For `Cc1nnc2sc3c(C4CCC(F)(F)CC4)ncnc3c2c1C` [Compound 25, 8-(4,4-difluorocyclohexyl)-3,4-dimethylpyrimido[4′,5′:4,5]thieno[2,3-c]pyridazine] the same measures were 45 nM and 96.3%.
For `Cc1cc(C)c2c(n1)sc1c(C3CCN(C(=O)C4(C)CC4)CC3)ncnc12` [Compound 13, (4-(7,9-dimethylpyrido[3′,2′:4,5]thieno[3,2-d]pyrimidin-4-yl)piperidin-1-yl)(1-methylcyclopropyl)methanone] the same measures were 230 nM and 63%.
Take `Cc1cc(C)c2c(n1)sc1c(C3CCN(C(=O)C4CC4)CC3)ncnc12` [Compound 11, cyclopropyl(4-(7,9-dimethylpyrido[3′,2′:4,5]thieno[3,2-d]pyrimidin-4-yl)piperidin-1-yl)methanone]: on Human M4, the EC50 was 620 nM and the Emax amounted to 43.5%.
The matching figures for `Cc1nnc2sc3c(CCC4CCCCO4)ncnc3c2c1C` (stereo not shown) [Compound 24, 3,4-dimethyl-8-(2-(tetrahydro-2H-pyran-2-yl)ethyl)pyrimido[4′,5′:4,5]thieno[2,3-c]pyridazine]: 280 nM and 59.8%.
The matching figures for `Cc1cc(C)c2c(n1)sc1c(C3CCN(C=O)CC3)ncnc12` [Compound 7, 4-(7,9-dimethylpyrido[3′,2′:4,5]thieno[3,2-d]pyrimidin-4-yl)piperidine-1-carbaldehyde]: 480 nM and 65.6%.
For `Cc1cc(C)c2c(n1)sc1c(C)ncnc12` [Compound 4, 4,7,9-trimethylpyrido[3′,2′:4,5]thieno[3,2-d]pyrimidine] the same measures were 2800 nM and 58.1%.
On to `CCc1ncnc2c1sc1nc(C)cc(C)c12` [Compound 6, 4-ethyl-7,9-dimethylpyrido[3′,2′:4,5]thieno[3,2-d]pyrimidine], for which, on Human M4, the EC50 was 2900 nM and the maximal effect (Emax) stood at 59.1%.
On to `Cc1nnc2sc3c(CC(C)(C)C)ncnc3c2c1C` [Compound 28, 3,4-dimethyl-8-neopentylpyrimido[4′,5′:4,5]thieno[2,3-c]pyridazine], for which the Emax at Human M4 worked out at 75.6%.
Turning to `Cc1cc(C)c2c(n1)sc1c(C3CCN(C4COC4)CC3)ncnc12` [Compound 21, 7,9-dimethyl-4-(1-(oxetan-3-yl)piperidin-4-yl)pyrido[3′,2′:4,5]thieno[3,2-d]pyrimidine], at Human M4, the EC50 was 1600 nM and the Emax was 41.8%.
Regarding `Cc1nnc2sc3c(C4CC4)ncnc3c2c1C` [Compound 17, 8-cyclopropyl-3,4-dimethylpyrimido[4′,5′:4,5]thieno[2,3-c]pyridazine], on Human M4, the EC50 was found to be 140 nM and the Emax was 73.5%.
Take `CCCCCCOc1nsnc1C1=CCCN(C)C1` [xanomeline]: the “effect on psychotic behavioral symptoms” value in series [1] was “reduce psychotic behavioral symptoms”. Besides, the “activity in animal models” value in series [2] is listed as “active in animal models”.
Regarding `Cc1nnc2sc3c(C4CCN(C(=O)C5CCCO5)CC4)ncnc3c2c1C` (stereo not shown) [Compound 27, (4-(3,4-dimethylpyrimido[4′,5′:4,5]thieno[2,3-c]pyridazin-8-yl)piperidin-1-yl)(tetrahydrofuran-2-yl)methanone], on Human M4, the EC50 was found to be 1900 nM and the Emax stood at 58.2%.
For the compound `Cc1nnc2sc3c(C4CC(F)(F)C4)ncnc3c2c1C` [Compound 22, 8-(3,3-difluorocyclobutyl)-3,4-dimethylpyrimido[4′,5′:4,5]thieno[2,3-c]pyridazine], the Emax on Human M4 amounted to 72.1%.
Turning to `Cc1cc(C)c2c(n1)sc1c(C3CCCCC3)ncnc12` [Compound 9, 4-cyclohexyl-7,9-dimethylpyrido[3′,2′:4,5]thieno[3,2-d]pyrimidine], at Human M4, the EC50 was found to be 6800 nM and the Emax worked out at 70.8%.
The matching figures for `Cc1nnc2sc3c(C4CCN(C(=O)C5(F)CC5)CC4)ncnc3c2c1C` [Compound 20, (4-(3,4-dimethylpyrimido[4′,5′:4,5]thieno[2,3-c]pyridazin-8-yl)piperidin-1-yl)(1-fluorocyclopropyl)methanone]: 490 nM and 39.1%.
For `Cc1cc(C)c2c(n1)sc1c(C3CCN(C(=O)C4(F)CC4)CC3)ncnc12` [Compound 12, (4-(7,9-dimethylpyrido[3′,2′:4,5]thieno[3,2-d]pyrimidin-4-yl)piperidin-1-yl)(1-fluorocyclopropyl)methanone] the same measures were 820 nM and 62%.
For `Cc1nnc2sc3c(C4CCCCC4)ncnc3c2c1C` [Compound 16, 8-cyclohexyl-3,4-dimethylpyrimido[4′,5′:4,5]thieno[2,3-c]pyridazine] the same measures were 52 nM and 72.6%.
As for `Cc1cc(C)c2c(n1)sc1c(-c3nccs3)ncnc12` [Compound 3, 7,9-dimethyl-4-(thiazol-2-yl)pyrido[3′,2′:4,5]thieno[3,2-d]pyrimidine; 2,2,2-trifluoroacetic acid], at Human M4, the EC50 amounted to 3400 nM and the Emax came out at 62.2%.
As to `Cc1cc(C)c2c(n1)sc1c(C3CC3)ncnc12` [Compound 5, 4-cyclopropyl-7,9-dimethylpyrido[3′,2′:4,5]thieno[3,2-d]pyrimidine], on Human M4, the concentration giving a half-maximal response (EC50) came to 3900 nM and the Emax was 61.5%.
The matching figures for `Cc1cc(C)c2c(n1)sc1c(C3CCNCC3)ncnc12` [Compound 10, 7,9-dimethyl-4-(piperidin-4-yl)pyrido[3′,2′:4,5]thieno[3,2-d]pyrimidine]: 6100 nM and 98.8%.
For `Cc1cc(C)c2c(n1)sc1c(C3CCOCC3)ncnc12` [Compound 1, 7,9-Dimethyl-4-(tetrahydro-2H-pyran-4-yl)pyrido[3′,2′:4,5]thieno[3,2-d]pyrimidine], on Human M4, the EC50 stood at 150 nM and the Emax came out at 98.8%.
As for `Nc1c2c(nc3ccccc13)CCCC2` [tacrine], the “elevated liver transaminases (hepatotoxicity), share of patients” value in series [3] is on record as “about 30%”.
As for `Cc1nnc2sc3c(C4CCN(C(=O)C5CC5)CC4)ncnc3c2c1C` [Compound 26, cyclopropyl(4-(3,4-dimethylpyrimido[4′,5′:4,5]thieno[2,3-c]pyridazin-8-yl)piperidin-1-yl)methanone], on Human M4, the EC50 turned out to be 410 nM and the Emax was determined as 36.5%.
For `Cc1cc(C)c2c(n1)sc1c(C3CCCC3)ncnc12` [Compound 8, 4-cyclopentyl-7,9-dimethylpyrido[3′,2′:4,5]thieno[3,2-d]pyrimidine], on Human M4, the EC50 was over 10000 nM and the Emax stood at 70.9%.
For `C/C=C/c1ncnc2c1sc1nc(C)cc(C)c12` [Compound 2, (E)-7,9-dimethyl-4-(prop-1-en-1-yl)pyrido[3′,2′:4,5]thieno[3,2-d]pyrimidine; 2,2,2-trifluoroacetic acid] the same measures were over 10000 nM and 55.3%.
Consider `Cc1nnc2sc3c(C4CCOCC4)ncnc3c2c1C` [Compound 18, 3,4-dimethyl-8-(tetrahydro-2H-pyran-4-yl)pyrimido[4′,5′:4,5]thieno[2,3-c]pyridazine], for which, on Human M4, the Emax was 74.6%.
With `Cc1cc(C)c2c(n1)sc1c(C3CCN(C(=O)C4CCCO4)CC3)ncnc12` (stereo not shown) [Compound 15, (4-(7,9-dimethylpyrido[3′,2′:4,5]thieno[3,2-d]pyrimidin-4-yl)piperidin-1-yl)(tetrahydrofuran-2-yl)methanone], on Human M4, the EC50 was 1000 nM and the Emax turned out to be 44%.
